We go through 48 molecules from patent US9238039B2, “Pyrazolo[1,5-A]pyrimidines for antiviral treatment” (Gilead Sciences, Inc., priority 2010, dated 2016).

In this experiment the test system is RSV strain A2. Description: RSV antiviral cytoprotection assay in Hep2 cells (96-well and 384-well format, Cell TiterGlo read-out). The experiment is classed as cell-based, Respiratory Syncytial Virus (RSV). Particulars: for inhibition at 0.5 µM: HEp-2, 0.5 uM; for EC50: Hep2 cells, class symbols; for inhibition at 1 µM: HEp-2, 1 uM.
[1] abbreviates: human respiratory syncytial virus, RSV-induced cytopathic effect in Hep2 cells, calculated from fitted dose response curve, normalized to 0% and 100%.
[2] abbreviates: human respiratory syncytial virus, HEp-2, RSV-induced cytopathic effects.

For `Cc1ccc(NS(C)(=O)=O)c(C(=O)N2CCC(C(F)(F)F)CC2c2cc3[nH]c(C)c(C)c(=O)n3n2)c1` (centres unmarked) [Compound 251], the inhibition at 0.5 µM under setting [1] is 73%. In addition, the EC50 under setting [2] lay within 101 to 1000 nM.
For the molecule `CCc1c(C)[nH]c2cc([C@@H]3CCCCN3C(=O)c3cc(F)ccc3NS(C)(=O)=O)nn2c1=O` [Compound 28], under setting [1], the inhibition at 0.5 µM is 73% and the inhibition at 1 µM is 95%. Moreover, the EC50 under setting [2] was in the range of 101 to 1000 nM.
For the molecule `Cc1ccc(NS(C)(=O)=O)c(C(=O)N2CCCC[C@H]2c2cc3nc(C)c(C)c(C4CC4)n3n2)c1` [Compound 87], the inhibition at 0.5 µM under setting [1] was 84%. Besides, under setting [2], the EC50 is 101 to 1000 nM.
For `Cc1ccc(NS(C)(=O)=O)c(C(=O)N2CCCC(C)C2c2cc3nc(C)c(C)cn3n2)c1` (centres unmarked) [Compound 36] the same measures were 90% and 0.1 to 100 nM.
With `Cc1cn2nc([C@@H]3CCCCN3C(=O)c3cc(Cl)ccc3NS(C)(=O)=O)cc2nc1N1CC(C)(O)C1` [Compound 96], under setting [1], the inhibition at 0.5 µM is 97%. Also, under setting [2], the EC50 was in the range of 0.1 to 100 nM.
For `Cc1cn2nc([C@@H]3CC[C@H](C)CN3C(=O)c3cc(Cl)ccc3NS(C)(=O)=O)cc2nc1N1CC[C@@H](O)C1` [Compound 136], in that order: 100% and 0.1 to 100 nM.
For `CS(=O)(=O)Nc1ccc(Cl)cc1C(=O)N1CCCC[C@H]1c1cc2nc(N3CC(N)C3)cc(N3CCOCC3)n2n1` [Compound 68] the same measures were 100% and 0.1 to 100 nM.
Consider `Cc1ccc(NS(C)(=O)=O)c(C(=O)N2CCCC(C)C2c2cc3[nH]c(C)c(C)c(=O)n3n2)c1` (centres unmarked) [Compound 37], for which the “% inh @ 0.5 uM” value (0.5 uM, RSV-induced cytopathic effect in Hep2 cells, calculated from fitted dose response curve, normalized to 0% and 100%) is on record as 100%. Moreover, the EC50 (RSV-induced cytopathic effects) lay within 0.1 to 100 nM.
Turning to `Cc1cc(C)cc(C(=O)N2CCCC[C@H]2c2cc3nc(N4CC[C@H](N)C4)c(C)cn3n2)c1` [Compound 160], under setting [1], the inhibition at 0.5 µM is 100%. The EC50 under setting [2] was 0.1 to 100 nM.
For `CC(=O)c1cccc(C(=O)N2CCCC[C@H]2c2cc3nc(N4CC[C@H](N)C4)c(C)cn3n2)c1` [Compound 318], in that order: 100% and 0.1 to 100 nM.
For `Cc1cn2nc([C@@H]3CCCCN3C(=O)c3n[nH]c4c3CCC4)cc2nc1N1CC[C@H](N)C1` [Compound 296] the same measures were 49% and 101 to 1000 nM.
Turning to `Cc1[nH]c2cc([C@@H]3CCCCN3C(=O)c3ccccc3NC(=O)C3CC3)nn2c(=O)c1C` [Compound 14], under setting [1], the inhibition at 0.5 µM is 96% and the inhibition at 1 µM was 98%. In addition, the EC50 under setting [2] was in the range of 0.1 to 100 nM.
As to `CCc1ccc(NS(C)(=O)=O)c(C(=O)N2CCCC[C@H]2c2cc3nc(C4CC4)cc(C)n3n2)c1` [Compound 115], the inhibition at 0.5 µM under setting [1] is 100%. The EC50 under setting [2] fell in the range of 0.1 to 100 nM.
For `Cc1cn2nc([C@@H]3CCCCN3C(=O)c3cc(C4(O)CCCC4)on3)cc2nc1N1CC[C@H](N)C1` [Compound 405], in that order: 99% and 0.1 to 100 nM.
For `Cc1cn2nc([C@@H]3CCCCN3C(=O)c3cc(Cl)cnc3O)cc2nc1N1CC[C@H](N)C1` [Compound 345] the same measures were 100% and 0.1 to 100 nM.
For `CS(=O)(=O)Nc1ccc(Cl)cc1C(=O)N1CCCC[C@H]1c1cc2nc(N3CCC3)cc(N3CCC(N)CC3)n2n1` [Compound 233] the same measures were 100% and 0.1 to 100 nM.
`Cc1cn2nc([C@@H]3CCCCN3C(=O)c3cc(Cl)ccc3NS(C)(=O)=O)cc2nc1N1CC(=O)C1` [Compound 170]: the inhibition at 0.5 µM under setting [1] is 100%. Further, the EC50 under setting [2] is 0.1 to 100 nM.
For `Cc1cn2nc([C@@H]3CC[C@H](C)CN3C(=O)c3cc(Cl)ccc3NS(C)(=O)=O)cc2nc1N1CC(N)C1` [Compound 137], in that order: 100% and 0.1 to 100 nM.
For `Cc1cn2nc([C@@H]3CCCCN3C(=O)c3c(Cl)cnn3C(C)C)cc2nc1N1CC[C@H](N)C1` [Compound 382], in that order: 99% and 0.1 to 100 nM.
For `Cc1cn2nc([C@@H]3CCCCN3C(=O)c3nccc4ccccc34)cc2nc1N1CC[C@H](N)C1` [Compound 344], in that order: 100% and 0.1 to 100 nM.
As to `Cc1ccc(NS(C)(=O)=O)c(C(=O)N2CCCC[C@H]2c2cc3nc(N4CCC4)cc(N4CCOCC4)n3n2)c1` [Compound 194], the inhibition at 0.5 µM under setting [1] is 100%. Further, the EC50 under setting [2] fell in the range of 0.1 to 100 nM.
For `Cc1cn2nc([C@@H]3CCCCN3C(=O)c3nc4ccccn4c3F)cc2nc1N1CC[C@H](N)C1` [Compound 363], the inhibition at 0.5 µM under setting [1] is 99%. The EC50 under setting [2] lay in the range of 0.1 to 100 nM.
With `CS(=O)(=O)Nc1ccc(Cl)cc1C(=O)N1CCCC[C@H]1c1cc2nc(N3CC(O)C3)cc(N3CCOC3)n2n1` [Compound 77], the inhibition at 0.5 µM under setting [1] is 100%. Under setting [2], the EC50 was in the range of 0.1 to 100 nM.
As to `Cc1cc(C2CC2)nc2cc([C@@H]3CCCCN3C(=O)c3cc(F)cc(Br)c3NS(C)(=O)=O)nn12` [Compound 121], under setting [1], the inhibition at 0.5 µM was 97%. Under setting [2], the EC50 lay in the range of 0.1 to 100 nM.
`Cc1cn2nc([C@@H]3CCCCN3C(=O)c3ccc(OC(F)F)cc3)cc2nc1N1CC[C@H](N)C1` [Compound 378]: the inhibition at 0.5 µM under setting [1] is 48%. For the same molecule, the EC50 under setting [2] fell in the range of 101 to 1000 nM.
For `Cc1ccc(NS(C)(=O)=O)c(C(=O)N2CCCC[C@H]2c2cc3nc(C)c(C)c(N4CCOCC4)n3n2)c1` [Compound 104], in that order: 100% and 0.1 to 100 nM.
For `CS(=O)(=O)Nc1ccc(Cl)cc1C(=O)N1CCCC[C@H]1c1cc2nc(N3CCC3)cc(N3CCOC3)n2n1` [Compound 74], in that order: 100% and 0.1 to 100 nM.
For `Cc1cn2nc([C@@H]3CCCCN3C(=O)c3cc(Cl)ccc3NS(C)(=O)=O)cc2nc1NC(=N)N` [Compound 139], in that order: 99% and 0.1 to 100 nM.
In the case of `Cc1cc(C2CC2)nc2cc([C@@H]3CCCCN3C(=O)C(c3ccccc3)N(C)C)nn12` (some centres unmarked) [Compound 239], the inhibition at 0.5 µM under setting [1] is 36%. Under setting [2], the EC50 was in the range of 101 to 1000 nM.
For `Cc1cn2nc([C@@H]3CCCCN3C(=O)c3onc(C)c3C)cc2nc1N1CC[C@H](N)C1` [Compound 283] the same measures were 99.8% and 0.1 to 100 nM.
With `CS(=O)(=O)Nc1ccc(Cl)cc1C(=O)N1CCCC[C@H]1c1cc2nc(N3CCC3)cc(N3CCCN3)n2n1` [Compound 145], the inhibition at 0.5 µM under setting [1] is 99%. For the same molecule, the EC50 under setting [2] was 0.1 to 100 nM.
For `Cc1cc(N2CCCC2)nc2cc([C@@H]3CCCCN3C(=O)c3cc(Cl)ccc3NS(C)(=O)=O)nn12` [Compound 46], in that order: 100% and 0.1 to 100 nM.
For `COc1cccc(C(=O)N2CCCC[C@H]2c2cc3nc(N4CC[C@H](N)C4)c(C)cn3n2)c1Cl` [Compound 377] the same measures were 99% and 0.1 to 100 nM.
For `Cc1cc(C(=O)N2CCCC[C@H]2c2cc3nc(N4CC[C@H](N)C4)c(C)cn3n2)n(C(F)F)n1` [Compound 354] the same measures were 87% and 101 to 1000 nM.
For the molecule `Cc1cn2nc([C@@H]3CCCCN3C(=O)c3cc(Cl)ccc3NS(C)(=O)=O)cc2nc1N1CCC[C@H]1CN` [Compound 203], the inhibition at 0.5 µM under setting [1] was 86%. Also, the EC50 under setting [2] is 101 to 1000 nM.
Take `Cc1cc(Cl)ccc1C(=O)N1CCCC[C@H]1c1cc2nc(N3CC[C@H](N)C3)c(C)cn2n1` [Compound 333]: the inhibition at 0.5 µM under setting [1] was 99%. In addition, the EC50 under setting [2] lay in the range of 0.1 to 100 nM.
As to `CS(=O)(=O)Nc1ccc(Cl)cc1C(=O)N1CCCC[C@H]1c1cc2nc(C3CC3)cc(N3CCC3)n2n1` [Compound 64], the inhibition at 0.5 µM under setting [1] is 98%. The EC50 under setting [2] lay in the range of 0.1 to 100 nM.
Turning to `Cc1cn2nc([C@@H]3CCCCN3C(=O)c3ccccc3)cc2nc1N1CC[C@H](N)C1` [Compound 412], under setting [1], the inhibition at 0.5 µM was 100%. Under setting [2], the EC50 lay in the range of 0.1 to 100 nM.
As to `CS(=O)(=O)Nc1ccc(Cl)cc1C(=O)N1CCCC[C@H]1c1cc2nc(N3CCC3)cc(N3CCN[C@@H](CF)C3)n2n1` [Compound 162], under setting [1], the inhibition at 0.5 µM was 100%. Moreover, the EC50 under setting [2] is 0.1 to 100 nM.
For `CC(=O)Nc1c(Cl)cc(C)cc1C(=O)N1CCCC[C@H]1c1cc2nc(C)c(C)c(N(C)C)n2n1` [Compound 246], in that order: 98% and 0.1 to 100 nM.
For `COc1cc(F)ccc1C(=O)N1CCCC[C@H]1c1cc2nc(N3CC[C@H](N)C3)c(C)cn2n1` [Compound 330] the same measures were 68% and 101 to 1000 nM.
For `CCOc1cccc(C(=O)N2CCCC[C@H]2c2cc3nc(N4CC[C@H](N)C4)c(C)cn3n2)c1` [Compound 319] the same measures were 100% and 0.1 to 100 nM.
In the case of `Cc1cccc(C(=O)N2CCCC[C@H]2c2cc3nc(N4CC[C@H](C#N)C4)c(C)cn3n2)c1` [Compound 152], under setting [1], the inhibition at 0.5 µM is 100%. Moreover, the EC50 under setting [2] fell in the range of 0.1 to 100 nM.
Take `Cc1ccc(NS(C)(=O)=O)c(C(=O)N2CCC(C)CC2c2cc3[nH]c(C)c(C)c(=O)n3n2)c1` (centres unmarked) [Compound 89]: the inhibition at 0.5 µM under setting [1] is 100%. Also, under setting [2], the EC50 is 0.1 to 100 nM.
For `Cc1cc(N2CC(F)C2)nc2cc([C@@H]3CCCCN3C(=O)c3cc(Cl)ccc3NS(C)(=O)=O)nn12` [Compound 47], in that order: 100% and 0.1 to 100 nM.
For `Cc1cn2nc([C@@H]3CCCCN3C(=O)c3cc(Br)ccc3NS(C)(=O)=O)cc2nc1N1CC(O)C1` [Compound 168], in that order: 100% and 0.1 to 100 nM.
For `Cc1cn2nc([C@@H]3CCCCN3C(=O)c3cc(CC(C)C)nn3C)cc2nc1N1CC[C@H](N)C1` [Compound 368] the same measures were 58% and 101 to 1000 nM.
As to `Cc1cn2nc([C@@H]3CCCCN3C(=O)c3cc(C(F)(F)F)n(C)n3)cc2nc1N1CC[C@H](N)C1` [Compound 400], the inhibition at 0.5 µM under setting [1] is 100%. For the same molecule, the EC50 under setting [2] fell in the range of 0.1 to 100 nM.
